Marks after values point to notes of the source that are not given here.
Test system: transformed human airway epithelial cells (CFT1-LCFSN line)
Experiment: Inhibition of internalization of P. aeruginosa strain 149 into CFT1-LCFSN cells (bacterial ingestion assay)
Assay type: cell-based
Conditions: strain 149, CFT1-LCFSN cells
Text: Cell lines. CFT1-LCFSN cells, carrying a retrovirally introduced chromosomal copy of the wild-type human CFTR gene were kindly provided by J. Olsen, J. Yankaskis and L. Johnson from The University of North Carolina, Chapel Hill, N.C.. The cell line parental to CFT1-LCFSN is designated CFT1; it is a line of human papilloma virus 18 E6/E7 transformed bronchial epithelial cells derived from a CF patient homozygous for ΔF508 CFTR. The CFT1-LCFSN cells have normal chloride ion conductance. CFT1-ΔF508 cells are derived from CFT1 cells and carry a cDNA introduced by a retrovirus vector that encodes the ΔF508 mutant form of CFTR. Cells were grown in supplemented F-12 medium as described in 5% CO2 at 37° C.
Bacterial strains. P. aeruginosa strains used include PAO1, a well-characterized laboratory strain, and strains 149 and 324, non-mucoid, LPS-smooth clinical isolates of P. aeruginosa from CF patients early in the course of infection. Fresh cultures of P. aeruginosa grown overnight at 37° C. on a tryptic soy agar plate were suspended in supplemented medium to prepare the bacterial inoculum. Approximately 10^6 cfu of the bacterial inoculum were added per well of 10^5, epithelial cells.
Reagents for inhibition of ingestion assays. Membranes were prepared from C127 cells as described by O'Riordan et al.. Membranes were suspended in 150 mM NaCl, 50 mM Tris, pH 7.5 and 1 mM EDTA and added at the indicated concentration to suspensions of P. aeruginosa strains prior to adding this mixture to CFT1-LCFSN cells to measure bacterial uptake. Membranes from CEM/VbI cells expressing P-glycoprotein and membranes from control CEM cells lacking P-glycoprotein were obtained from James Croop of Harvard Medical School. Purified (˜85%) recombinant CFTR was obtained from Genzyme Corp., and prepared as described. The protein was solubilized in 100 mM NaCl, 10 mM Tris, pH 8.0, 2 mM di-thio-threitol and 0.1% sodium dodecyl sulfate. Monoclonal antibodies raised to synthetic peptides corresponding to the first (MAb CF3) and fourth (MAb CF4) predicted extracellular domains of CFTR, as well as a MAb specific to a peptide representing the carboxy-terminal 14 amino acids of mature CFTR (MAb CF2) were provided by Dr. George Banting, University of Bristol, Bristol, UK [12]. Synthetic peptides were obtained from Chiron Mimetopes, San Diego, Calif. Peptide GRIIASYDPDNKEER (15 amino acids) (SEQ.ID.NO. 3) represents amino acids 103-117 of mature CFTR, peptide […] (31 amino acids) (SEQ.ID.NO. 4) represents amino acids 881-911 of mature CFTR. Peptides were made up as a stock solution in F-12 medium containing 1 μM/μl based on the purity reported by the manufacturer. Peptides were diluted in F-12 tissue culture medium prior to use in assays.
Bacterial ingestion assay. Cells were released from monolayers in tissue culture flasks by 5 min. of incubation with trypsin-versene mixture (BioWhitaker, Walkersville, Md.), washed, counted and seeded into 96-well tissue culture plates at 10^5 cells/well in supplemented F-12 medium and incubated at 37° C. in 5% CO2. Fresh cultures of P. aeruginosa grown overnight at 37° C. on a tryptic soy agar plate were suspended in supplemented F-12 medium to prepare the bacterial inoculum. Then 10^6 colony forming units (cfu) of the bacterial inoculum were added per well of 10^5 epithelial cells. Bacteria were allowed to invade the epithelial cells for 3 to 4 hours at 37° C., after which nonadherent bacteria were removed by washing. The remaining steps of the assay and the steps involved in the controls have previously been described. Three to 9 replicates were obtained per point, and analyzed using analysis of variance (ANOVA) and the Fisher PLSD statistic to determine pairwise differences. […]

For “GRIIASYDPDNKEER (listed as Homo Sapiens) [First domain]”, the “Mean cfu of P. aeruginosa internalized (standard deviation)” value (0.001 nanomoles peptide) was 5.73 × 10^4 (4.006 × 10^3) cfu, the “Mean cfu of P. aeruginosa internalized (standard deviation)” value (0.01 nanomoles peptide) was 1.705 × 10^4 (2.1333 × 10^3)^a cfu and the “Mean cfu of P. aeruginosa internalized (standard deviation)” value (0.1 nanomoles peptide) was 7.0167 × 10^3 (8.542 × 10^2)^a cfu. For the same sequence, the “Mean cfu of P. aeruginosa internalized (standard deviation)” value (1 nanomoles peptide) was 3.7833 × 10^3 (4.491 × 10^2)^a cfu.
With “LWLLGNTPLQDKGNSTHSRNNSYAVIITSTS (listed as Homo Sapiens) [Fourth domain, reference compound]” the “Mean cfu of P. aeruginosa internalized (standard deviation)” value (0.001 nanomoles peptide) was 4.752 × 10^4 (5.9915 × 10^3) cfu, the “Mean cfu of P. aeruginosa internalized (standard deviation)” value (0.01 nanomoles peptide) was 4.86 × 10^4 (4.6463 × 10^3) cfu and the “Mean cfu of P. aeruginosa internalized (standard deviation)” value (0.1 nanomoles peptide) was 5.528 × 10^4 (6.0598 × 10^3) cfu. The “Mean cfu of P. aeruginosa internalized (standard deviation)” value (1 nanomoles peptide) was 5.735 × 10^4 (4.0009 × 10^3) cfu.
